Laboratory results reported in patent US20260144740A1, “COSMETIC ACTIVE INGREDIENT DERIVED FROM A NON-VOLATILE FRACTION OF CANARIUM EXUDATE AND USES THEREOF” (FLORE SCOLA, priority 2022, published 2026).

Experiments:
PCi-SEB human sebocytes = experiment: Anti-sebum effect: intracellular neutral lipids (Nile Red test) in sebocytes, lipogenesis induced by linoleic acid; type: cell-based; conditions: positive control
Experimental: The aim of this test is to study the anti-sebum effect of the ingredient according to the invention using an in vitro cell model. An extract is prepared according to Example 2.
The procedure is as follows. PCi-SEB human sebocytes derived from induced pluripotent stem (iPS) cells are prepared. The amplification and the maturation of PCi-SEB sebocytes is achieved by incubation in SEB medium for amplification for 2 days then in supplemented SEB medium for maturation for 3 days. The sebocytes are incubated for 24 hours in the presence of the ingredient according to the invention. Lipogenesis is induced by the addition of linoleic acid, then the sebocytes are incubated for 48 hours in the presence of the ingredient according to the invention.
In order to verify efficacy, the following biomarkers are measured: namely, intracellular neutral lipids (Nile Red test) and cellular proteins (Pierce BCA test).
The experimental plan is as follows: • 1 batch (Control): untreated cells incubated in SEB medium (n=3) • 1 batch (EtOH control): untreated cells incubated in SEB medium+EtOH (0.125%)] (n=3) • 3 batches (Test element-treated): cells incubated in medium (SEB+EtOH (0.125%)) and treated with 3 concentrations of test element (n=3) • 1 batch [PC]: cells incubated in SEB medium and treated with TOFA (20 μM)
The ingredient according to the invention was tested at 3 concentrations: C1=5 μg/mL, C2=15 μg/mL and C3=30 μg/mL
The level of neutral lipids was measured in control sebocyte cultures then treated by staining the cells with Nile Red. The values (fluorescence intensity) were reported at the average cellular protein level.
The [Nile-Red] values are expressed in arbitrary units (fluorescence intensity (urf) per mg of cellular protein).

interleukin 6 (IL-6) = experiment: Anti-inflammatory effect: IL-6 release by keratinocytes stimulated by UV (ELISA, related to protein level); type: cell-based, human; conditions: positive control
Experimental: This test consists of evaluating the production of inflammatory mediators by human keratinocytes in response to irritant stress. The method is based on measuring the release rate of interleukin 6 (IL-6) by keratinocytes cultured in the presence of the ingredient and stimulated by UV light.
Five solutions are tested. Each is obtained by dilution in a culture medium and obtaining a final concentration of 1% ethanol. […] The second, third and fourth solutions differ in the concentration of the final residue (respectively 1.4 μg/mL, 3.5 μg/mL and 7.0 μg/mL). The fifth solution is dexamethasone (Dexa) (SIGMA Ref D1756) which is tested at 100 µM as a positive control.
On D0, 48 hours after seeding, the cells are rinsed with phosphate-buffered saline (PBS) and then exposed to UVB through the PBS. Immediately after irradiation, the PBS is replaced by the DMEM (Dulbecco's Modified Eagle Medium) test medium comprising the solution to be tested. The cells are returned to 37° C. and incubated for 24 hours.
On D1 (T 24 h), the incubation media are collected and the level of IL-6 is measured using the ELISA assay kit (IL-6 HIGH SENSITIVITY ELISA KIT, ENZO). At the same time, the corresponding cell layers are rinsed with Hank's Balanced Salt Solution (HBSS) and processed for cellular protein assay. A NaOH solution is added to each sample. After incubation, the cell extracts are collected and frozen at −20° C. to await assay with the BCA Protein Assay kit (PIERCE®).
The crude levels of IL-6 (pg per sample) are deduced by interpolation from the standard curve established with the IL-6 standard in the kit. The average of the IL-6 levels is calculated for each sample.
The protein level (μg per sample) is deduced by interpolation from the standard curve established with a bovine serum albumin standard in order to express the IL-6 level in relation to the average protein level. The average level is calculated for each sample.
The average IL-6 level is related to the average protein level. […]

Row | SMILES | Neutral lipids - Nile Red, Mean, per mg of cellular protein (PCi-SEB human sebocytes; 20 μM) | Nile Red Test, Mean (fluorescence intensity) (PCi-SEB human sebocytes; 20 μM) | Lipogenic effect (%) (PCi-SEB human sebocytes; 20 μM, vs. EtOH control) | activity at 20 µM (PCi-SEB human sebocytes; Homo sapiens, read-out: Neutral lipids (% of controlEtOH)) | Induced IL-6 (interleukin 6 (IL-6); 100 μM, 24 h after UVB) | Induced IL-6 (%), with respect to IL-6 induced in the ethanol control (interleukin 6 (IL-6); 100 μM, 24 h after UVB) | inhibition of UV-induced IL-6 release (interleukin 6 (IL-6); same experimental conditions)
1 | CCCCCCCCCCCCCCOc1ccc(C(=O)O)o1 [TOFA, 5-(tetradecyloxy)-2-furoic acid] | 7.01 URF/mg prot. | 1679 | −75% | 25% |  |  | 
2 | C[C@@H]1C[C@H]2[C@@H]3CCC4=CC(=O)C=C[C@]4(C)[C@@]3(F)[C@@H](O)C[C@]2(C)[C@@]1(O)C(=O)CO [Dexa, dexamethasone] |  |  |  |  | 105.10 pg/mg prot. | 8% | 92%
